According to the supplement of paper PMC10307832:

Columns and labels:
Experiment in all cases: relative viability (nuclei count vs DMSO), 5 days (fraction); higher = more cells survive
AZD8055 + Olaparib = compound: COc1ccc(-c2ccc3c(N4CCOC[C@@H]4C)nc(N4CCOC[C@@H]4C)nc3n2)cc1CO [AZD8055] + O=C(c1cc(Cc2n[nH]c(=O)c3ccccc23)ccc1F)N1CCN(C(=O)C2CC2)CC1 [Olaparib] (partner 8 µM)
Method in brief: (§1)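 Nuclei were stained with Hoechst during a one-step fixation (final 0.05% Triton X-100, 1% formaldehyde, 1 ug/ml Hoechst) carried out 5 days after dosing, then counted on 4× images. The cells, lung cancer lines in 1536-well plates, had been dosed by pin tool the day after seeding with one drug alone or a fixed anchor-drug dose plus five library-drug doses (not always all listed) in √10 steps. Relative viability is the nuclei count in treated wells divided by that in vehicle wells, and each value is the median of duplicate plates.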

AZD8055 + Palbociclib = compound: COc1ccc(-c2ccc3c(N4CCOC[C@@H]4C)nc(N4CCOC[C@@H]4C)nc3n2)cc1CO [AZD8055] + CC(=O)c1c(C)c2cnc(Nc3ccc(N4CCNCC4)cn3)nc2n(C2CCCC2)c1=O [Palbociclib] (partner 0.5 µM)
Method in brief: as §1

AZD8055 + Alpelisib = compound: COc1ccc(-c2ccc3c(N4CCOC[C@@H]4C)nc(N4CCOC[C@@H]4C)nc3n2)cc1CO [AZD8055] + Cc1nc(NC(=O)N2CCC[C@H]2C(N)=O)sc1-c1ccnc(C(C)(C)C(F)(F)F)c1 [Alpelisib] (partner 2 µM)
Method in brief: as §1

AZD8055 + Pemetrexed = compound: COc1ccc(-c2ccc3c(N4CCOC[C@@H]4C)nc(N4CCOC[C@@H]4C)nc3n2)cc1CO [AZD8055] + Nc1nc2[nH]cc(CCc3ccc(C(=O)N[C@@H](CCC(=O)O)C(=O)O)cc3)c2c(=O)[nH]1 [Pemetrexed] (partner 0.2 µM)
Method in brief: as §1

## HCC-366
AZD8055 + Olaparib; first compound 0.01 µM
  relative viability: 0.426
AZD8055 + Olaparib; first compound 0.03162 µM
  relative viability: 0.275
AZD8055 + Olaparib; first compound 0.1 µM
  relative viability: 0.273
AZD8055 + Olaparib; first compound 0.3162 µM
  relative viability: 0.143
AZD8055 + Olaparib; first compound 1 µM
  relative viability: 0.136
AZD8055 + Palbociclib; first compound 0.01 µM
  relative viability: 0.311
AZD8055 + Palbociclib; first compound 0.03162 µM
  relative viability: 0.199
AZD8055 + Palbociclib; first compound 0.1 µM
  relative viability: 0.0939
AZD8055 + Palbociclib; first compound 0.3162 µM
  relative viability: 0.0508
AZD8055 + Palbociclib; first compound 1 µM
  relative viability: 0.0399
AZD8055 + Alpelisib; first compound 0.01 µM
  relative viability: 0.479
AZD8055 + Alpelisib; first compound 0.03162 µM
  relative viability: 0.243
AZD8055 + Alpelisib; first compound 0.1 µM
  relative viability: 0.169
AZD8055 + Alpelisib; first compound 0.3162 µM
  relative viability: 0.0661
AZD8055 + Alpelisib; first compound 1 µM
  relative viability: 0.07
AZD8055 + Pemetrexed; first compound 0.01 µM
  relative viability: 0.256
AZD8055 + Pemetrexed; first compound 0.03162 µM
  relative viability: 0.285
AZD8055 + Pemetrexed; first compound 0.1 µM
  relative viability: 0.248
AZD8055 + Pemetrexed; first compound 0.3162 µM
  relative viability: 0.161
AZD8055 + Pemetrexed; first compound 1 µM
  relative viability: 0.109

## HCC-827
AZD8055 + Olaparib; first compound 0.01 µM
  relative viability: 0.651
AZD8055 + Olaparib; first compound 0.03162 µM
  relative viability: 0.523
AZD8055 + Olaparib; first compound 0.1 µM
  relative viability: 0.494
AZD8055 + Olaparib; first compound 0.3162 µM
  relative viability: 0.281
AZD8055 + Olaparib; first compound 1 µM
  relative viability: 0.172
AZD8055 + Palbociclib; first compound 0.01 µM
  relative viability: 0.482
AZD8055 + Palbociclib; first compound 0.03162 µM
  relative viability: 0.406
AZD8055 + Palbociclib; first compound 0.1 µM
  relative viability: 0.381
AZD8055 + Palbociclib; first compound 0.3162 µM
  relative viability: 0.227
AZD8055 + Palbociclib; first compound 1 µM
  relative viability: 0.181
AZD8055 + Alpelisib; first compound 0.01 µM
  relative viability: 0.974
AZD8055 + Alpelisib; first compound 0.03162 µM
  relative viability: 0.863
AZD8055 + Alpelisib; first compound 0.1 µM
  relative viability: 0.736
AZD8055 + Alpelisib; first compound 0.3162 µM
  relative viability: 0.305
AZD8055 + Alpelisib; first compound 1 µM
  relative viability: 0.254
AZD8055 + Pemetrexed; first compound 0.01 µM
  relative viability: 0.278
AZD8055 + Pemetrexed; first compound 0.03162 µM
  relative viability: 0.242
AZD8055 + Pemetrexed; first compound 0.1 µM
  relative viability: 0.239
AZD8055 + Pemetrexed; first compound 0.3162 µM
  relative viability: 0.275
AZD8055 + Pemetrexed; first compound 1 µM
  relative viability: 0.216

## HOP-62
AZD8055 + Olaparib; first compound 0.01 µM
  relative viability: 0.756
AZD8055 + Olaparib; first compound 0.03162 µM
  relative viability: 0.501
AZD8055 + Olaparib; first compound 0.1 µM
  relative viability: 0.45
AZD8055 + Olaparib; first compound 0.3162 µM
  relative viability: 0.5
AZD8055 + Olaparib; first compound 1 µM
  relative viability: 0.184
AZD8055 + Palbociclib; first compound 0.01 µM
  relative viability: 0.428
AZD8055 + Palbociclib; first compound 0.03162 µM
  relative viability: 0.441
AZD8055 + Palbociclib; first compound 0.1 µM
  relative viability: 0.414
AZD8055 + Palbociclib; first compound 0.3162 µM
  relative viability: 0.171
AZD8055 + Palbociclib; first compound 1 µM
  relative viability: 0.172
AZD8055 + Alpelisib; first compound 0.01 µM
  relative viability: 1.26
AZD8055 + Alpelisib; first compound 0.03162 µM
  relative viability: 1.18
AZD8055 + Alpelisib; first compound 0.1 µM
  relative viability: 0.667
AZD8055 + Alpelisib; first compound 0.3162 µM
  relative viability: 0.434
AZD8055 + Alpelisib; first compound 1 µM
  relative viability: 0.26
AZD8055 + Pemetrexed; first compound 0.01 µM
  relative viability: 0.312
AZD8055 + Pemetrexed; first compound 0.03162 µM
  relative viability: 0.29
AZD8055 + Pemetrexed; first compound 0.1 µM
  relative viability: 0.338
AZD8055 + Pemetrexed; first compound 0.3162 µM
  relative viability: 0.35
AZD8055 + Pemetrexed; first compound 1 µM
  relative viability: 0.242

## IA-LM
AZD8055 + Olaparib; first compound 0.01 µM
  relative viability: 0.8
AZD8055 + Olaparib; first compound 0.03162 µM
  relative viability: 0.823
AZD8055 + Olaparib; first compound 0.1 µM
  relative viability: 0.551
AZD8055 + Olaparib; first compound 0.3162 µM
  relative viability: 0.302
AZD8055 + Olaparib; first compound 1 µM
  relative viability: 0.114
AZD8055 + Alpelisib; first compound 0.01 µM
  relative viability: 0.749
AZD8055 + Alpelisib; first compound 0.03162 µM
  relative viability: 0.485
AZD8055 + Alpelisib; first compound 0.1 µM
  relative viability: 0.212
AZD8055 + Alpelisib; first compound 0.3162 µM
  relative viability: 0.0977
AZD8055 + Alpelisib; first compound 1 µM
  relative viability: 0.0895

## LC-2-ad
AZD8055 + Olaparib; first compound 0.01 µM
  relative viability: 0.748
AZD8055 + Olaparib; first compound 0.03162 µM
  relative viability: 0.778
AZD8055 + Olaparib; first compound 0.1 µM
  relative viability: 0.759
AZD8055 + Olaparib; first compound 0.3162 µM
  relative viability: 0.835
AZD8055 + Olaparib; first compound 1 µM
  relative viability: 0.704
AZD8055 + Palbociclib; first compound 0.01 µM
  relative viability: 0.534
AZD8055 + Palbociclib; first compound 0.03162 µM
  relative viability: 0.471
AZD8055 + Palbociclib; first compound 0.1 µM
  relative viability: 0.438
AZD8055 + Palbociclib; first compound 0.3162 µM
  relative viability: 0.388
AZD8055 + Palbociclib; first compound 1 µM
  relative viability: 0.312
AZD8055 + Alpelisib; first compound 0.01 µM
  relative viability: 0.841
AZD8055 + Alpelisib; first compound 0.03162 µM
  relative viability: 0.827
AZD8055 + Alpelisib; first compound 0.1 µM
  relative viability: 0.697
AZD8055 + Alpelisib; first compound 0.3162 µM
  relative viability: 0.42
AZD8055 + Alpelisib; first compound 1 µM
  relative viability: 0.402
AZD8055 + Pemetrexed; first compound 0.01 µM
  relative viability: 0.281
AZD8055 + Pemetrexed; first compound 0.03162 µM
  relative viability: 0.277
AZD8055 + Pemetrexed; first compound 0.1 µM
  relative viability: 0.307
AZD8055 + Pemetrexed; first compound 0.3162 µM
  relative viability: 0.289
AZD8055 + Pemetrexed; first compound 1 µM
  relative viability: 0.278

## LCLC-97TM1
AZD8055 + Olaparib; first compound 0.01 µM
  relative viability: 0.413
AZD8055 + Olaparib; first compound 0.03162 µM
  relative viability: 0.308
AZD8055 + Olaparib; first compound 0.1 µM
  relative viability: 0.216
AZD8055 + Olaparib; first compound 0.3162 µM
  relative viability: 0.105
AZD8055 + Olaparib; first compound 1 µM
  relative viability: 0.0929
AZD8055 + Palbociclib; first compound 0.01 µM
  relative viability: 0.205
AZD8055 + Palbociclib; first compound 0.03162 µM
  relative viability: 0.164
AZD8055 + Palbociclib; first compound 0.1 µM
  relative viability: 0.129
AZD8055 + Palbociclib; first compound 0.3162 µM
  relative viability: 0.0928
AZD8055 + Palbociclib; first compound 1 µM
  relative viability: 0.0897
AZD8055 + Alpelisib; first compound 0.01 µM
  relative viability: 0.233
AZD8055 + Alpelisib; first compound 0.03162 µM
  relative viability: 0.179
AZD8055 + Alpelisib; first compound 0.1 µM
  relative viability: 0.135
AZD8055 + Alpelisib; first compound 0.3162 µM
  relative viability: 0.14
AZD8055 + Alpelisib; first compound 1 µM
  relative viability: 0.135
AZD8055 + Pemetrexed; first compound 0.01 µM
  relative viability: 0.18
AZD8055 + Pemetrexed; first compound 0.03162 µM
  relative viability: 0.158
AZD8055 + Pemetrexed; first compound 0.1 µM
  relative viability: 0.168
AZD8055 + Pemetrexed; first compound 0.3162 µM
  relative viability: 0.168
AZD8055 + Pemetrexed; first compound 1 µM
  relative viability: 0.132

## LCLC-103H
AZD8055 + Olaparib; first compound 0.01 µM
  relative viability: 0.824
AZD8055 + Olaparib; first compound 0.03162 µM
  relative viability: 0.634
AZD8055 + Olaparib; first compound 0.1 µM
  relative viability: 0.631
AZD8055 + Olaparib; first compound 0.3162 µM
  relative viability: 0.47
AZD8055 + Olaparib; first compound 1 µM
  relative viability: 0.396
AZD8055 + Palbociclib; first compound 0.01 µM
  relative viability: 0.52
AZD8055 + Palbociclib; first compound 0.03162 µM
  relative viability: 0.48
AZD8055 + Palbociclib; first compound 0.1 µM
  relative viability: 0.398
AZD8055 + Palbociclib; first compound 0.3162 µM
  relative viability: 0.468
AZD8055 + Palbociclib; first compound 1 µM
  relative viability: 0.421
AZD8055 + Alpelisib; first compound 0.01 µM
  relative viability: 0.956
AZD8055 + Alpelisib; first compound 0.03162 µM
  relative viability: 0.88
AZD8055 + Alpelisib; first compound 0.1 µM
  relative viability: 0.774
AZD8055 + Alpelisib; first compound 0.3162 µM
  relative viability: 0.538
AZD8055 + Alpelisib; first compound 1 µM
  relative viability: 0.422
AZD8055 + Pemetrexed; first compound 0.01 µM
  relative viability: 0.499
AZD8055 + Pemetrexed; first compound 0.03162 µM
  relative viability: 0.438
AZD8055 + Pemetrexed; first compound 0.1 µM
  relative viability: 0.54
AZD8055 + Pemetrexed; first compound 0.3162 µM
  relative viability: 0.49
AZD8055 + Pemetrexed; first compound 1 µM
  relative viability: 0.392

## LK-2
AZD8055 + Olaparib; first compound 0.01 µM
  relative viability: 0.769
AZD8055 + Olaparib; first compound 0.03162 µM
  relative viability: 0.436
AZD8055 + Olaparib; first compound 0.1 µM
  relative viability: 0.379
AZD8055 + Olaparib; first compound 0.3162 µM
  relative viability: 0.144
AZD8055 + Olaparib; first compound 1 µM
  relative viability: 0.171
AZD8055 + Palbociclib; first compound 0.01 µM
  relative viability: 0.387
AZD8055 + Palbociclib; first compound 0.03162 µM
  relative viability: 0.399
AZD8055 + Palbociclib; first compound 0.1 µM
  relative viability: 0.347
AZD8055 + Palbociclib; first compound 0.3162 µM
  relative viability: 0.17
AZD8055 + Palbociclib; first compound 1 µM
  relative viability: 0.102
AZD8055 + Alpelisib; first compound 0.01 µM
  relative viability: 1.03
AZD8055 + Alpelisib; first compound 0.03162 µM
  relative viability: 0.658
AZD8055 + Alpelisib; first compound 0.1 µM
  relative viability: 0.447
AZD8055 + Alpelisib; first compound 0.3162 µM
  relative viability: 0.331
AZD8055 + Alpelisib; first compound 1 µM
  relative viability: 0.265
AZD8055 + Pemetrexed; first compound 0.01 µM
  relative viability: 0.234
AZD8055 + Pemetrexed; first compound 0.03162 µM
  relative viability: 0.185
AZD8055 + Pemetrexed; first compound 0.1 µM
  relative viability: 0.138
AZD8055 + Pemetrexed; first compound 0.3162 µM
  relative viability: 0.137
AZD8055 + Pemetrexed; first compound 1 µM
  relative viability: 0.11
